Data: patent US11718620B2, “Method for treating a cancer mediated by abnormality of multi-kinases” (TransThera Sciences (Nanjing), Inc., priority 2016, dated 2023)

Experiments:
KDR(VEGFR2) [1] = molecular target: T1, KDR(VEGFR2) (Homo sapiens, UniProt P35968); test: KDR kinase activity test, [γ-33P]-ATP filter membrane; type: biochemical; conditions: 40 minutes at room temperature, read-out: Kinase-inhibiting activity IC50 KDR (VEGFR2)
Method: (§1) Test samples: compounds 1 to 4 in the present invention (the sequence numbers and structures thereof are shown in Table 1), dilution concentration: 0.03 μM-3 μM, a total of 10 concentration gradients.
(§2) Test method: enzymatic activity tests of Aurora kinase (including Aurora A and Aurora B) and VEGFR2 (KDR) were performed using a multi-function microplate reader.
(3) Test for KDR Kinase Activity:
(§3) KDR kinase protein and the compounds were sequentially added to the following reaction system: 8 mM MOPS pH 7.0, 0.2 mM EDTA, 0.33 mg/mL myelin basic protein, 10 mM magnesium acetate and [γ-^33P]-ATP (radioactive activity was approximately 500 cpm/pmol). Then the above reaction system was added with ATP to start the reaction, and incubated at room temperature for 40 minutes. Then the reaction was terminated by adding a 3% phosphoric acid solution. 10 μL was taken out from the reaction system, and then added dropwise to a P30 filtermat filter membrane, washed three times in a 75 mM phosphoric acid solution for 5 minutes, and then washed once with methanol. After the filter was dried, count was performed by a liquid crystal scintillation counter.

Aurora A [2] = molecular target: T2, Aurora A (Homo sapiens, UniProt O14965); test: Aurora A kinase activity test, [γ-33P]-ATP filter membrane; type: biochemical; conditions: 40 minutes at room temperature, read-out: Kinase-inhibiting activity IC50 Aurora A
T2 sequence (O14965 1-403): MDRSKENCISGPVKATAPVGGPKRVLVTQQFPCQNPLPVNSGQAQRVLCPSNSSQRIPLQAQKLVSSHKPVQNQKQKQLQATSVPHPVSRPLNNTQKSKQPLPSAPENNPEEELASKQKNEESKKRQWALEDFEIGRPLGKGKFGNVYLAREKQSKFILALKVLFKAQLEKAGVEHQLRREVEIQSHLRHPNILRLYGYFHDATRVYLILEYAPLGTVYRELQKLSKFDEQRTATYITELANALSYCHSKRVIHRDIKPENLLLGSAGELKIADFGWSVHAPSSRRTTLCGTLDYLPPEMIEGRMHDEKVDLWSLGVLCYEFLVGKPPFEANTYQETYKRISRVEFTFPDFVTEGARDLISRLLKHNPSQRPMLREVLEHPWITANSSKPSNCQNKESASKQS
Method: as §1, §2
(1) Test for Aurora a Kinase Activity:
as §3, with “Aurora A kinase protein” for “KDR kinase protein”, “mM EDTA, 200 μM LRRASLG (Kemptide), 10 mM” for “mM EDTA, 0.33 mg/mL myelin basic protein, 10 mM”, “times in 75 mM” for “times in a 75 mM”, “the filter membrane was dried,” for “the filter was dried,”

Aurora B [3] = molecular target: T3, Aurora B (Homo sapiens, UniProt Q96GD4); test: Aurora B kinase activity test, [γ-33P]-ATP filter membrane; type: biochemical; conditions: 40 minutes at room temperature, read-out: Kinase-inhibiting activity IC50 Aurora B
T3 sequence (Q96GD4 whole entry): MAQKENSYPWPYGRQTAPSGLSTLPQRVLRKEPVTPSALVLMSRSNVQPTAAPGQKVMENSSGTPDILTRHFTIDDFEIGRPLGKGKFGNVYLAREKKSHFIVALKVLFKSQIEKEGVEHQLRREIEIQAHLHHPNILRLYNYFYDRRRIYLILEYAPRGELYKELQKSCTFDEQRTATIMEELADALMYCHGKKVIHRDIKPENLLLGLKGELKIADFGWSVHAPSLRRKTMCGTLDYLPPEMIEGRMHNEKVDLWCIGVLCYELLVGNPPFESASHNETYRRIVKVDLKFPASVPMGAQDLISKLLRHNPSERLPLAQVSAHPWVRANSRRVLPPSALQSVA
Method: as §1, §2
(2) Test for Aurora B Kinase Activity:
as §3, with “Aurora B kinase protein” for “KDR kinase protein”, “mM EDTA, 30 μM […], 10 mM” for “mM EDTA, 0.33 mg/mL myelin basic protein, 10 mM”, “times in 75 mM” for “times in a 75 mM”

Aurora B [4] = molecular target: T3, Aurora B; test: Aurora B enzymatic activity test, FAM-labeled peptide, Caliper; type: biochemical; conditions: FAM-labeled peptide substrate, read-out: Kinase-inhibiting activity IC50 Aurora B
Method: (§4) Test samples: Compounds in the present invention (the sequence numbers and structures thereof are shown in Table 1), dilution concentration: 0.03 μM-3 μM, a total of 10 concentration gradients.
as §2
(§5) a) 96-well plates, 10 dose groups, 3-fold serial dilutions, each well was added with DMSO, maximal concentration of 500 μM (50-fold compound).
(§6) b) 384-well plates, diluted with 1× kinase buffer (50 mM HEPES, pH 7.5; 0.0015% Brij-35; 2 mM DTT), each well containing 5× compound dissolved in 5 μL of 10% DMSO. Each well of the negative control contains 5 μL of 1× kinase buffer containing 10% DMSO.
(§7) Aurora A, Aurora B and KDR were dissolved in 1× kinase buffer and prepared as a 2.5× enzyme solution. After the compound in various concentrations was reacted with 2.5× enzyme solution at room temperature for 10 min, the FAM-labeled peptide substrate and ATP were added to initiate reaction. After incubation for 40 minutes, 25 μL of terminal solution (100 mM HEPES, pH 7.5; 0.015% Brij-35; 0.2% Coating Reagent #3; 50 mM EDTA) was added to stop the reaction, and the final data were read by Caliper.

Aurora A [5] = molecular target: T2, Aurora A; test: Aurora A enzymatic activity test, FAM-labeled peptide, Caliper; type: biochemical; conditions: FAM-labeled peptide substrate, read-out: Kinase-inhibiting activity IC50 Aurora A
Method: as §4, §2, §5, §6, §7

KDR(VEGFR2) [6] = molecular target: T1, KDR(VEGFR2); test: KDR enzymatic activity test, FAM-labeled peptide, Caliper; type: biochemical; conditions: FAM-labeled peptide substrate, read-out: Kinase-inhibiting activity IC50 KDR(VEGFR2)
Method: as §4, §2, §5, §6, §7

KG-1 Leukemic cells = test: Cell proliferation, Cell Titer-Glo; type: cell-based; conditions: 72 hours, read-out: Cellular inhibitory activity IC50 KG-1
Method: (§8) Test method: The effect of compounds on cell proliferation of different cell lines was examined by Cell Titer-Glo method.
(§9) Each cell line was inoculated into a 96-well plate one day in advance, and after overnight incubation, drugs in different concentrations were added to a final concentration of 0-10000 nM, 3-5 folds dilution, for a total of 10 concentration points. After incubation for 72 hours, the mixture was added with Cell titer-Glo reagent equilibrated at room temperature, and shaken to incubation for 10 min, and then allowed to stand at room temperature for 2 min to stabilize the light signal. The multi-function microplate reader was used to read data from each well and analyze it.

[7] = system: A2780 ovarian cancer cells; test: Cell proliferation, Cell Titer-Glo; type: cell-based; conditions: Homo sapiens, 72 hours, read-out: Cellular inhibitory activity IC50 A2780
Method: as §8, §9

Kasumi-1 Leukemic cells = test: Cell proliferation, Cell Titer-Glo; type: cell-based; conditions: Homo sapiens, 72 hours, read-out: Cellular inhibitory activity IC50 Kasumi-1
Method: as §8, §9

[8] = system: OVCAR-8 ovarian cancer cells; test: Cell proliferation, Cell Titer-Glo; type: cell-based; conditions: Homo sapiens, 72 hours, read-out: Cellular inhibitory activity IC50 OVCAR-8
Method: as §8, §9

[9] = system: TOV-112D ovarian cancer cells; test: Cell proliferation, Cell Titer-Glo; type: cell-based; conditions: Homo sapiens, TOV112D, 72 hours, read-out: Cellular inhibitory activity IC50 TOV-112D
Method: as §8, §9

Hep3B liver cancer cells = test: Cell proliferation, Cell Titer-Glo; type: cell-based; conditions: Homo sapiens, 72 hours, read-out: Cellular inhibitory activity IC50 Hep3B
Method: as §8, §9

[10] = system: Caov-3 ovarian cancer cells; test: Cell proliferation, Cell Titer-Glo; type: cell-based; conditions: Homo sapiens, 72 hours, read-out: Cellular inhibitory activity IC50 Caov-3
Method: as §8, §9

[11] = system: OVCAR-3 ovarian cancer cells; test: Cell proliferation, Cell Titer-Glo; type: cell-based; conditions: Homo sapiens, 72 hours, read-out: Cellular inhibitory activity IC50 OVCAR-3
Method: as §8, §9

A549 Lung cancer cells = test: Cell proliferation, Cell Titer-Glo; type: cell-based; conditions: Homo sapiens, 72 hours, read-out: Cellular inhibitory activity IC50 A549
Method: as §8, §9

[12] = system: HCC1954 breast cancer cells; test: Cell proliferation, Cell Titer-Glo; type: cell-based; conditions: Homo sapiens, 72 hours, read-out: Cellular inhibitory activity IC50 HCC1954
Method: as §8, §9

[13] = system: BT-549 breast cancer cells; test: Cell proliferation, Cell Titer-Glo; type: cell-based; conditions: Homo sapiens, 72 hours, read-out: Cellular inhibitory activity IC50 BT-549
Method: as §8, §9

[14] = system: D4475 breast cancer cells; test: Cell proliferation, Cell Titer-Glo; type: cell-based; conditions: 72 hours, read-out: Cellular inhibitory activity IC50 D4475
Method: as §8, §9

[15] = system: HCC38 breast cancer cells; test: Cell proliferation, Cell Titer-Glo; type: cell-based; conditions: Homo sapiens, 72 hours, read-out: Cellular inhibitory activity IC50 HCC38
Method: as §8, §9

[16] = system: HCC70 breast cancer cells; test: Cell proliferation, Cell Titer-Glo; type: cell-based; conditions: Homo sapiens, 72 hours, read-out: Cellular inhibitory activity IC50 HCC70
Method: as §8, §9

[17] = system: MDA-MB-468 breast cancer cells; test: Cell proliferation, Cell Titer-Glo; type: cell-based; conditions: Homo sapiens, 72 hours, read-out: Cellular inhibitory activity IC50 MDA-MB-468
Method: as §8, §9

T1 sequence (P35968 20-1356): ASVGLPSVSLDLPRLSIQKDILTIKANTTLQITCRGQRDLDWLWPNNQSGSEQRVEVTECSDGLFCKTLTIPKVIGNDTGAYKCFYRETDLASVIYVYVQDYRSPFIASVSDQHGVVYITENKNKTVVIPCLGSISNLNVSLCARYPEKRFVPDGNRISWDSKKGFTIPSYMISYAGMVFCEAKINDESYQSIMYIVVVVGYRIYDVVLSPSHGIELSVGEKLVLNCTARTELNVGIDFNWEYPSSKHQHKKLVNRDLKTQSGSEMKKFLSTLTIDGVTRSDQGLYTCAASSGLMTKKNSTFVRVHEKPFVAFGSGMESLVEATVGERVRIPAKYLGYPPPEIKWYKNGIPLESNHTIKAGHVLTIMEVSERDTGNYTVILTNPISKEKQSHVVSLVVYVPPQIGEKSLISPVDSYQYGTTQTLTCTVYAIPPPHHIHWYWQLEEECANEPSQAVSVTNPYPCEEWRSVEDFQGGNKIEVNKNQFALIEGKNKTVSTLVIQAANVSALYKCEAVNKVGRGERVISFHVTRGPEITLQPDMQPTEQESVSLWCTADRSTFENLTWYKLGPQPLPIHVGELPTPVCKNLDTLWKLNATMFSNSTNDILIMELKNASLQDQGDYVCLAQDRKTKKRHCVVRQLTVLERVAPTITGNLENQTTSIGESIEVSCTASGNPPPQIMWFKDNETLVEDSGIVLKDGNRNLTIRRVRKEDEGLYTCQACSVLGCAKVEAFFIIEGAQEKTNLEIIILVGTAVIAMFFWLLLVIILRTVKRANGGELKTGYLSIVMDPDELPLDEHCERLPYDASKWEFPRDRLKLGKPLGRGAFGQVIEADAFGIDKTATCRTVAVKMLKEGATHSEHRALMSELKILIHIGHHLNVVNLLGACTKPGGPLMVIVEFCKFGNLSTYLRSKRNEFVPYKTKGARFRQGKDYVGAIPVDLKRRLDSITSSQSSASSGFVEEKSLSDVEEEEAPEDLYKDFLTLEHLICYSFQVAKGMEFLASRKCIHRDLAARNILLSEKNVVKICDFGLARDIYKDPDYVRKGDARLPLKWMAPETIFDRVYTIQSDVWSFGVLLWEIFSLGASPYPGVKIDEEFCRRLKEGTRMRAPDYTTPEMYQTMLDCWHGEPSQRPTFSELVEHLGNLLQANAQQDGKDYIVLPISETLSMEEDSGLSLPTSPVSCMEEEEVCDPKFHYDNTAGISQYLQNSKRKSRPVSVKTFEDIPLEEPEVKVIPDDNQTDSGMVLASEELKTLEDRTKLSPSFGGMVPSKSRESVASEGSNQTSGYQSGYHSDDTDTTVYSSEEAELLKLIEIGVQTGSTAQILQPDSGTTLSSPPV

Compound	IC50 (KDR(VEGFR2) [1]) [nM]	IC50 (Aurora A [2]) [nM]	IC50 (Aurora B [3]) [nM]	IC50 (Aurora B [4]) [nM]	IC50 (Aurora A [5]) [nM]	IC50 (KDR(VEGFR2) [6]) [nM]	IC50 (KG-1 Leukemic cells) [nM]	IC50 [7] [nM]	IC50 (Kasumi-1 Leukemic cells) [nM]	IC50 [8] [nM]	IC50 [9] [nM]	IC50 (Hep3B liver cancer cells) [nM]	IC50 [10] [nM]	IC50 [11] [nM]	IC50 (A549 Lung cancer cells) [nM]	IC50 [12] [nM]	IC50 [13] [nM]	also measured
Cc1[nH]nc2c1N=C(c1ccccc1Cl)c1cnc(S(C)(=O)=O)cc1N2 [Compound 1]	1660	12	30															
Cc1[nH]nc2c1N=C(c1ccccc1Cl)c1cnc(C3CC3)cc1N2 [Compound 2]	593	< 3	4															
COc1cc2c(cn1)C(c1ccccc1Cl)=Nc1c(n[nH]c1C)N2 [Compound 3]	876	4	8															
Cc1[nH]nc2c1N=C(c1ccccc1Cl)c1cnc(OC3CCOC3)cc1N2 (stereo not shown) [Compound 4]	1520	4	3															
Cc1[nH]nc2c1N=C(c1ccccc1Cl)c1cnc(N3CCN(C)CC3)cc1N2 [Compound 22, 5-(2-chlorophenyl)-3-methyl-8-(4-methylpiperazin-1-yl)-2,10-dihydropyrazolo[4,3-b]pyrido[4,3-e][1,4]diazepine]				7.1	1.2	0.91	5	34	19	433	650	67	146	752				
Cc1[nH]nc2c1N=C(c1ccccc1Cl)c1cnc(N3CCOCC3)cc1N2 [Compound 29, 4-(5-(2-chlorophenyl)-3-methyl-2,10-dihydropyrazolo[4,3-b]pyrido[4,3-e][1,4]diazepin-8-yl)morpholine]				5	0.49	1.2	5	35	48	305	955	50	184	307	322	396	170	IC50 [14]: 113 nM
CCN1CCN(Cc2cc3c(cn2)C(c2ccccc2Cl)=Nc2c(n[nH]c2C)N3)CC1 [Compound 33]				5.8	4.8	1.6										538	421	IC50 [15]: 700 nM; IC50 [16]: 866 nM
Cc1[nH]nc2c1N=C(c1ccccc1Cl)c1cnc(N3CCS(=O)(=O)CC3)cc1N2 [Compound 34]				7.5	1.3	2.3	45		81									
Cc1[nH]nc2c1N=C(c1ccccc1Cl)c1cnc(CN3CCOCC3)cc1N2 [Compound 35]				15	4.8	8.6			80	620			266	266	578	732	509	IC50 [17]: 1030 nM
CCc1cc2c(cn1)C(c1ccccc1Cl)=Nc1c(n[nH]c1C)N2 [Control drug 1-2, reference compound]				4	1.6	3.2	452	650	126	613	2510	244	365	814	1380	894	654	IC50 [15]: 1100 nM; IC50 [17]: 1380 nM; IC50 [16]: 1520 nM; IC50 [14]: 443 nM
